Reference: ChEMBL document CHEMBL1201862, “PubChem BioAssay data set” (2004)
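Exposure lasted 48 hours, with cells grown in 96-well plates and compounds tested at five concentrations. At the GI50, growth is halved.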 Active and inactive are the calls of the source. Rule as the data show it: active = GI50 up to about 1.1 µM and inactive = higher.

Tests used:
Assay in all cases: NCI-60 cell line screen, 48 h
[1] = test system: SF-295
[2] = test system: TK-10
[3] = test system: K562
[4] = test system: OVCAR-3
[5] = test system: MCF7
[6] = test system: HCT-116
[7] = test system: NCI/ADR-RES
[8] = test system: SNB-75
[9] = test system: UO-31
[10] = test system: SK-MEL-28
[11] = test system: LOX IMVI
[12] = test system: HCT-15
[13] = test system: RPMI-8226
[14] = test system: SR
[15] = test system: NCI-H23
[16] = test system: MOLT-4
[17] = test system: U-251
[18] = test system: SK-MEL-2
[19] = test system: CAKI-1
[20] = test system: A498
[21] = test system: SNB-19
[22] = test system: SF-539
[23] = test system: RXF 393
[24] = test system: MDA-MB-435
[25] = test system: SN12C
[26] = test system: EKVX
[27] = test system: IGROV-1
[28] = test system: PC-3
[29] = test system: NCI-H522
[30] = test system: A549
[31] = test system: Hs-578T
[32] = test system: HOP-92
[33] = test system: UACC-257
[34] = test system: SW-620
[35] = test system: HL-60
[36] = test system: HOP-62
[37] = test system: CCRF-CEM
[38] = test system: OVCAR-8
[39] = test system: ACHN
[40] = test system: OVCAR-5
[41] = test system: OVCAR-4
[42] = test system: KM12
[43] = test system: 786-0
[44] = test system: T47D
[45] = test system: COLO 205
[46] = test system: MDA-MB-231
[47] = test system: DU-145
[48] = test system: HCC 2998
[49] = test system: HT-29
[50] = test system: SF-268
[51] = test system: NCI-H460
[52] = test system: SK-MEL-5
[53] = test system: Malme-3M
[54] = test system: NCI-H226
[55] = test system: UACC-62
[56] = test system: M14
[57] = test system: MDA-N
[58] = test system: SK-OV-3

## Cc1ccc(NC(=O)CSC(N)=O)cc1C
[1]
  GI50: > 100 µM (inactive)
[2]
  GI50: > 100 µM (inactive)
[3]
  GI50: > 100 µM (inactive)
[4]
  GI50: > 100 µM (inactive)
[5]
  GI50: 31 µM (inactive)
[6]
  GI50: > 100 µM (inactive)
[7]
  GI50: > 100 µM (inactive)
[8]
  GI50: > 100 µM (inactive)
[9]
  GI50: > 100 µM (inactive)
[10]
  GI50: > 100 µM (inactive)
[11]
  GI50: 37.9 µM (inactive)
[12]
  GI50: > 100 µM
[13]
  GI50: 29.3 µM (inactive)
[14]
  GI50: 34.7 µM (inactive)
[15]
  GI50: > 100 µM (inactive)
[16]
  GI50: 30.8 µM (inactive)
[17]
  GI50: > 100 µM (inactive)
[18]
  GI50: > 100 µM (inactive)
[19]
  GI50: > 100 µM (inactive)
[20]
  GI50: 98.4 µM (inactive)
[21]
  GI50: > 100 µM (inactive)
[22]
  GI50: 43.4 µM (inactive)
[23]
  GI50: > 100 µM (inactive)
[24]
  GI50: > 100 µM (inactive)
[25]
  GI50: > 100 µM (inactive)
[26]
  GI50: > 100 µM (inactive)
[27]
  GI50: > 100 µM (inactive)
[28]
  GI50: > 100 µM (inactive)
[29]
  GI50: 89.9 µM (inactive)
[30]
  GI50: > 100 µM (inactive)
[31]
  GI50: > 100 µM (inactive)
[32]
  GI50: > 100 µM (inactive)
[33]
  GI50: > 100 µM (inactive)
[34]
  GI50: > 100 µM (inactive)
[35]
  GI50: > 100 µM (inactive)
[36]
  GI50: > 100 µM (inactive)
[37]
  GI50: > 100 µM (inactive)
[38]
  GI50: > 100 µM (inactive)
[39]
  GI50: > 100 µM (inactive)
[40]
  GI50: > 100 µM (inactive)
[41]
  GI50: > 100 µM (inactive)
[42]
  GI50: > 100 µM (inactive)
[43]
  GI50: 48.2 µM (inactive)
[44]
  GI50: > 100 µM (inactive)
[45]
  GI50: > 100 µM (inactive)
[46]
  GI50: > 100 µM (inactive)
[47]
  GI50: > 100 µM (inactive)
[48]
  GI50: > 100 µM (inactive)
[49]
  GI50: > 100 µM (inactive)
[50]
  GI50: > 100 µM (inactive)
[51]
  GI50: > 100 µM (inactive)
[52]
  GI50: > 100 µM (inactive)
[53]
  GI50: > 100 µM (inactive)
[54]
  GI50: > 100 µM (inactive)
[55]
  GI50: 93.8 µM (inactive)
[56]
  GI50: 40.8 µM (inactive)

## COc1ccc(Nc2nc3cc(N)cc(N)c3nc2-c2ccccc2)cc1
[33]
  GI50: 14.4 µM (inactive)
[49]
  GI50: 20.3 µM (inactive)

## Fc1ccc(NCn2nc(COc3ccccc3Cl)n(/N=C/c3ccc(-c4ccc(Cl)cc4Cl)o3)c2=S)cc1Cl
[1]
  GI50: 33 µM (inactive)
[2]
  GI50: 31.8 µM (inactive)
[3]
  GI50: 15.4 µM (inactive)
[4]
  GI50: 37.9 µM (inactive)
[5]
  GI50: 26.7 µM (inactive)
[6]
  GI50: 28.4 µM (inactive)
[7]
  GI50: 43.5 µM (inactive)
[9]
  GI50: 32.9 µM (inactive)
[10]
  GI50: > 100 µM (inactive)
[11]
  GI50: 23.9 µM (inactive)
[12]
  GI50: 26.7 µM
[13]
  GI50: 22.3 µM (inactive)
[14]
  GI50: 16.6 µM (inactive)
[15]
  GI50: 27.4 µM (inactive)
[16]
  GI50: 16.1 µM (inactive)
[17]
  GI50: 25.8 µM (inactive)
[18]
  GI50: 25 µM (inactive)
[19]
  GI50: 34.4 µM (inactive)
[20]
  GI50: 16.1 µM (inactive)
[22]
  GI50: 31.3 µM (inactive)
[23]
  GI50: 21.5 µM (inactive)
[24]
  GI50: 41.4 µM (inactive)
[26]
  GI50: > 100 µM (inactive)
[27]
  GI50: 29.2 µM (inactive)
[28]
  GI50: 38.5 µM (inactive)
[29]
  GI50: 36.7 µM (inactive)
[57]
  GI50: 38.5 µM (inactive)
[31]
  GI50: 82.6 µM (inactive)
[33]
  GI50: 41.5 µM (inactive)
[34]
  GI50: 36.1 µM (inactive)
[35]
  GI50: 15.8 µM (inactive)
[36]
  GI50: 52.4 µM (inactive)
[37]
  GI50: 25.5 µM (inactive)
[38]
  GI50: 36.1 µM (inactive)
[39]
  GI50: 29.5 µM (inactive)
[40]
  GI50: > 100 µM (inactive)
[41]
  GI50: 53.2 µM (inactive)
[42]
  GI50: 26 µM (inactive)
[43]
  GI50: 27 µM (inactive)
[44]
  GI50: 27.7 µM (inactive)
[46]
  GI50: 44.4 µM (inactive)
[47]
  GI50: 47.6 µM (inactive)
[49]
  GI50: > 100 µM (inactive)
[50]
  GI50: 79.1 µM (inactive)
[51]
  GI50: 32.7 µM (inactive)
[52]
  GI50: 7.62 µM (inactive)
[58]
  GI50: 46.6 µM (inactive)
[54]
  GI50: 83.8 µM (inactive)
[56]
  GI50: 28.5 µM (inactive)

## COc1cc([N+](=O)[O-])c(S(=O)(=O)[O-])cc1-[n+]1nc(C(=O)Nc2ccccc2)nn1-c1ccc([N+](=O)[O-])c(S(=O)(=O)O)c1
[1]
  GI50: > 100 µM (inactive)
[2]
  GI50: > 100 µM (inactive)
[3]
  GI50: > 100 µM (inactive)
[4]
  GI50: > 100 µM (inactive)
[5]
  GI50: > 100 µM (inactive)
[6]
  GI50: > 100 µM (inactive)
[7]
  GI50: > 100 µM (inactive)
[8]
  GI50: > 100 µM (inactive)
[9]
  GI50: > 100 µM (inactive)
[10]
  GI50: > 100 µM (inactive)
[12]
  GI50: > 100 µM
[13]
  GI50: > 100 µM (inactive)
[14]
  GI50: > 100 µM (inactive)
[15]
  GI50: > 100 µM (inactive)
[16]
  GI50: > 100 µM (inactive)
[17]
  GI50: > 100 µM (inactive)
[18]
  GI50: > 100 µM (inactive)
[19]
  GI50: > 100 µM (inactive)
[21]
  GI50: > 100 µM (inactive)
[22]
  GI50: > 100 µM (inactive)
[23]
  GI50: > 100 µM (inactive)
[24]
  GI50: > 100 µM (inactive)
[25]
  GI50: > 100 µM (inactive)
[26]
  GI50: > 100 µM (inactive)
[27]
  GI50: > 100 µM (inactive)
[28]
  GI50: > 100 µM (inactive)
[29]
  GI50: > 100 µM (inactive)
[30]
  GI50: > 100 µM (inactive)
[57]
  GI50: > 100 µM (inactive)
[31]
  GI50: > 100 µM (inactive)
[34]
  GI50: > 100 µM (inactive)
[35]
  GI50: 84.7 µM (inactive)
[36]
  GI50: > 100 µM (inactive)
[37]
  GI50: > 100 µM (inactive)
[39]
  GI50: > 100 µM (inactive)
[40]
  GI50: > 100 µM (inactive)
[41]
  GI50: > 100 µM (inactive)
[42]
  GI50: > 100 µM (inactive)
[43]
  GI50: > 100 µM (inactive)
[44]
  GI50: > 100 µM (inactive)
[45]
  GI50: > 100 µM (inactive)
[46]
  GI50: 52.2 µM (inactive)
[47]
  GI50: > 100 µM (inactive)
[48]
  GI50: > 100 µM (inactive)
[49]
  GI50: > 100 µM (inactive)
[50]
  GI50: > 100 µM (inactive)
[51]
  GI50: > 100 µM (inactive)
[52]
  GI50: > 100 µM (inactive)
[53]
  GI50: > 100 µM (inactive)
[58]
  GI50: > 100 µM (inactive)
[54]
  GI50: > 100 µM (inactive)
[55]
  GI50: > 100 µM (inactive)
[56]
  GI50: > 100 µM (inactive)
